Measured values as given in US12173018B2, “Penicillin-binding protein inhibitors” (priority 2018, dated 2024).

system: P. aeruginosa ATCC 27853; experiment: Broth microdilution MIC, P. aeruginosa ATCC 27853; type: cell-based; conditions: Pseudomonas aeruginosa, ATCC27853, read-out: MIC P. aeruginosa ATCC 27853
Method: To determine the ability of test compounds to potentiate the inhibition of the growth of bacterial strains, classic cell based broth microdilution minimum inhibitory concentration (MIC) assays were employed. MIC assays are performed according to CLSI methods except where otherwise noted (CLSI, 2011 and CLSI, 2009). The reference type strain E. coli ATCC 25922, the wild-type parent strain E. coli AG100, the hyper-permeable E. coli 901C and E. coli D22 and the E. coli AG100A strain lacking the acrAB efflux pump encoding genes were used to determine the ability of the PBP inhibitors to penetrate the outer membrane of gram-negative bacteria and inhibit bacterial growth. […] The P. aeruginosa PAO1, P. aeruginosa ATCC 27853 and A. baumannii ATCC 19606, along with the hyper-permeable P. aeruginosa ATCC 35151 and an engineered efflux pump-compromised strain of P. aeruginosa (ΔmexAB-oprM) were used to determine the ability of PBP inhibitors to penetrate the outer membrane of P. aeruginosa and A. baumannii and assess antibacterial activity against these important gram-negative organisms.
Briefly, cryo-preserved bacterial cultures of challenge strains are streaked for isolation on appropriate agar medium, in this case Mueller Hinton II agar. Following incubation to allow growth of the colonies, plates are sealed with parafilm and stored refrigerated for up to two weeks. For preparation of assay inoculum and to ensure low variability, at least 5 colonies are picked from the agar plates with an inoculating loop and aseptically transferred to a culture tube containing 3 mL of Mueller-Hinton Broth (supplemented with divalent cations to required levels based on Manufacturers' certification). The broth culture is grown for 3-5 hours at 37° C. with shaking at 200 rpm. Meanwhile, 2-fold serial dilutions of test compounds are conducted in a 96 well plate with a final volume of 75 μL per well at 2-fold the final desired concentration. After the dilution plates are set up the growing cultures are then diluted in a cuvette containing MH II broth and the optical density is measured at 600 nm. The Inoculum is diluted such that 75 μL of this culture in Mueller-Hinton Broth results in a starting bacterial concentration of 5×10^5 CFU/mL when added to the dilution plates. The plates are incubated for 16-20 hours at 37° C. The MIC values are read visually as the lowest concentration well with no bacterial growth.

| Structure (SMILES) | MIC |
| --- | --- |
| CCN1C[C@H](CO)N(C(=O)NC(C(=O)N[C@H]2Cc3cccc(C(=O)O)c3OB2O)c2ncc(O)cc2F)C(=O)C1=O (stereo partly drawn) [Example 234, (3R)-3-(2-((R)-4-ethyl-6-(hydroxymethyl)-2,3-dioxopiperazine-1-carboxamido)-2-(3-fluoro-5-hydroxypyridin-2-yl)acetamido)-2-hydroxy-3,4-dihydro-2H-benzo[e][1,2]oxaborinine-8-carboxylic acid] | > 128 µg/mL |

same assay, conditions: Pseudomonas aeruginosa, ATCC27853; P. aeruginosa ATCC 27853, broth microdilution; read-out: MIC P. aeruginosa ATCC 27853

| Structure (SMILES) | MIC |
| --- | --- |
| CCN1C[C@H](CCN)N(C(=O)NC(C(=O)N[C@H]2Cc3ccc(F)c(C(=O)O)c3OB2O)c2ccc(O)c(O)c2Cl)C(=O)C1=O (stereo partly drawn) [Example 238, (3R)-3-(2-((S)-6-(2-aminoethyl)-4-ethyl-2,3-dioxopiperazine-1-carboxamido)-2-(2-chloro-3,4-dihydroxyphenyl)acetamido)-7-fluoro-2-hydroxy-3,4-dihydro-2H-benzo[e][1,2]oxaborinine-8-carboxylic acid] | 2 to 4 µg/mL |
| NCCCN1CCN(C(=O)N[C@@H](C(=O)N[C@H]2Cc3ccc(F)c(C(=O)O)c3OB2O)c2ccc(O)c(O)c2Cl)C(=O)C1=O [Example 236, (R)-3-((R)-2-(4-(3-aminopropyl)-2,3-dioxopiperazine-1-carboxamido)-2-(2-chloro-3,4-dihydroxyphenyl)acetamido)-7-fluoro-2-hydroxy-3,4-dihydro-2H-benzo[e][1,2]oxaborinine-8-carboxylic acid] | 0.5 to 1 µg/mL |
| NCCCN1CCN(C(=O)NC(C(=O)N[C@H]2Cc3cccc(C(=O)O)c3OB2O)c2ccc(O)c(O)c2Cl)C(=O)C1=O (stereo partly drawn) [Example 233, (3R)-3-(2-(4-(3-aminopropyl)-2,3-dioxopiperazine-1-carboxamido)-2-(2-chloro-3,4-dihydroxyphenyl)acetamido)-2-hydroxy-3,4-dihydro-2H-benzo[e][1,2]oxaborinine-8-carboxylic acid] | 2 to 4 µg/mL |
| CCNC(=O)NCCN1CCN(C(=O)NC(C(=O)N[C@H]2Cc3cccc(C(=O)O)c3OB2O)c2ccc(O)c(O)c2Cl)C(=O)C1=O (stereo partly drawn) [Example 235, (3R)-3-(2-(2-chloro-3,4-dihydroxyphenyl)-2-(4-(2-(3-ethylureido)ethyl)-2,3-dioxopiperazine-1-carboxamido)acetamido)-2-hydroxy-3,4-dihydro-2H-benzo[e][1,2]oxaborinine-8-carboxylic acid] | 8 to 16 µg/mL |
| CCN1C[C@H](CO)N(C(=O)NC(C(=O)N[C@H]2Cc3ccc(F)c(C(=O)O)c3OB2O)c2ccc(O)c(O)c2Cl)C(=O)C1=O (stereo partly drawn) [Example 237, (3R)-3-(2-(2-chloro-3,4-dihydroxyphenyl)-2-((R)-4-ethyl-6-(hydroxymethyl)-2,3-dioxopiperazine-1-carboxamido)acetamido)-7-fluoro-2-hydroxy-3,4-dihydro-2H-benzo[e][1,2]oxaborinine-8-carboxylic acid] | 0.5 to 1 µg/mL |
| CNCCN1CCN(C(=O)NC(C(=O)N[C@H]2Cc3cccc(C(=O)O)c3OB2O)c2ccc(O)c(O)c2Cl)C(=O)C1=O (stereo partly drawn) [Example 239, (3R)-3-(2-(2-chloro-3,4-dihydroxyphenyl)-2-(4-(2-(methylamino)ethyl)-2,3-dioxopiperazine-1-carboxamido)acetamido)-2-hydroxy-3,4-dihydro-2H-benzo[e][1,2]oxaborinine-8-carboxylic acid] | 8 to 16 µg/mL |
